Measurements as given in patent US6040149A, “Assay for identifying agents which act on the ceramide-activated protein kinase, kinase suppressor of ras, and methods of using said agents” (priority 1997, dated 2000).

Key:
[1] = tested on: ceramide-activated protein kinase; assay: CAP kinase activation in HL-60 cells (renaturation and autophosphorylation); format: cell-based, human (HL-60 cells); conditions: TPA 100 ng/ml
Description: Stimulation of ceramide-activated protein (CAP) kinase by lipid A. On the day of an experiment, HL-60 cells were resuspended (1×10^6 cells ml^-1) into serum-free RPMI 1640 containing 5 μg ml^-1 insulin and transferrin. After 2 h, cells were stimulated with lipid A (Escherichia Coli) or diluent (DMSO, <0.01%). Ceramide-activated protein kinase contained within microsomal membranes was detected by renaturation and autophosphorylation. Briefly, membrane proteins (200 μg per lane) were separated by SDS-PAGE (10%), and the gel was washed with two changes of buffer (50 mM Tris, pH 7.4, 5 mM 2-mercaptoethanol) containing 20% 2-propanol at room temperature for 1 h, and once in buffer without 2-propanol for 1 h. Denaturation was accomplished by incubation of the gel in two changes of 6M guanidinium HCl in wash buffer for 1 h each. Renaturation was accomplished by incubation of the gel overnight at 4° C. in wash buffer containing 0.04% Tween-20. The gel was then equilibrated for 10 min at room temperature in kinase reaction mixture (25 mM HEPES, pH 7.4, 10 mM MgCl2, 0.5 mM EGTA and 5 mM NaF) and [γ-^32 p] ATP (50 μM final concentration; 1000 dpm pmol^-1) was added. Autophosphorylation was terminated by removal of the reaction mixture. The gel was washed with 6 changes of buffer (5% trichloroacetic acid, 1% sodium pyrophosphate) for 2 h and subjected to autoradiography. Top panel--Time course of lipid A activation. Bottom panel--Dose response at 5 minutes of lipid A stimulation. Autoradiograms represent one of three similar studies in both panels A and B.
On the day of an experiment, cells were resuspended (1×10^6 cells ml^-1) into serum-free RPMI 1640 containing 5 μg ml^-1 insulin and transferrin. After 2 h, cells were stimulated with lipid A or diluent (DMSO, <0.01% ). […] The postnuclear supernate was centrifuged at 200,000×g for 30 min and microsomal membranes were resuspended ([…]) into homogenizing buffer. Ceramide-activated protein kinase was detected by renaturation and autophosphorylation. Briefly, membrane proteins (200 μg per lane) were separated by SDS-PAGE (10%), and the gel was washed with two changes of buffer (50 mM Tris, pH 7.4, 5 mM 2-mercaptoethanol) containing 20% 2-propanol at room temperature for 1 h, and once in buffer without 2-propanol for 1 h. Denaturation was accomplished by incubation of the gel in two changes of 6M guanidinium HCl in wash buffer for 1 h each. Renaturation was accomplished by incubation of the gel overnight at 4° C. in wash buffer containing 0.04% Tween-20. The gel was then equilibrated for 10 min at room temperature in kinase reaction mixture (25 mM HEPES, pH 7.4, 10 mM MgCl2, 0.5 mM EGTA and 5 mM NaF) and [γ-^32 P] ATP (50 μM final concentration; 1000 dpm pmol^-1. Autophosphorylation was terminated by removal of the reaction mixture. The gel was washed with 6 changes of buffer (5% trichloracetic acid, 1% sodium pyrophosphate) for 2 h and subjected to autoradiography.
For studies involving activation of ceramide-activated protein kinase by LPS, HL-60 cells (13×10^6 ml^-1) were handled as above, and LPS (Salmonella typhosa, 50 ng ml^-1), recombinant LBP (1.7 μg ml^-1) or both LPS and LBP were added for the times indicated. Isolation of microsomal membranes and autophosphorylation of ceramide-activated protein kinase were performed as above.

[2] = biological target: T1, KSR (Mus musculus, UniProt Q61097); assay: Phosphorylation and activation of recombinant Raf-1 by KSR immunoprecipitated from treated COS-7 cells; format: cell-based, mouse (KSR expressed in COS-7 cells); conditions: C2-ceramide 1 μM; TNFα 10 nM
T1 sequence (Q61097 1-873): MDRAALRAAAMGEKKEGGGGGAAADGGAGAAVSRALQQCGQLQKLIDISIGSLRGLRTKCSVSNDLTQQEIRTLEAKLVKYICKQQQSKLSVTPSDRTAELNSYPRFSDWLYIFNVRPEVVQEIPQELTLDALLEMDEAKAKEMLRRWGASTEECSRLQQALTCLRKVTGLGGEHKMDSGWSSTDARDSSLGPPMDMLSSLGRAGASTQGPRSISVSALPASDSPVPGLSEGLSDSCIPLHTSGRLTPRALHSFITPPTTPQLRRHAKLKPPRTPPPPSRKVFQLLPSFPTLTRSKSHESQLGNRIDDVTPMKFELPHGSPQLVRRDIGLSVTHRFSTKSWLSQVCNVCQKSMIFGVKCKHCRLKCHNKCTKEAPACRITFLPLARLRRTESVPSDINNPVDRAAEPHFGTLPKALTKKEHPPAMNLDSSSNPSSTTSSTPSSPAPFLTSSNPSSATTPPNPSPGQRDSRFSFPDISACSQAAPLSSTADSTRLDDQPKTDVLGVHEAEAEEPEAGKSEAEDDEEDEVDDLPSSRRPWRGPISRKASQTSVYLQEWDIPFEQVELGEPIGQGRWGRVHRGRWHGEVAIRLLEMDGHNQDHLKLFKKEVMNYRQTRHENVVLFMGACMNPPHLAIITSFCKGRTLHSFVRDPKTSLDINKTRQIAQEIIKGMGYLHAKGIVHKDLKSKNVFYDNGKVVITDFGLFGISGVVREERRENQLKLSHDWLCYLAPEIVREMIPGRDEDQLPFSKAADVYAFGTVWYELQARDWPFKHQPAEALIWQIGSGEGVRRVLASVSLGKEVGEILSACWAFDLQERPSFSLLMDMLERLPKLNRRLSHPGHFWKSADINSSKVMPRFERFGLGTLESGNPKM
Description: FIGS. 23B-23C--COS-7 cells expressing Flag-tagged KSR were stimulated with 1 μM C2-ceramide for 10 min and lysed with NP-40 buffer as in FIG. 23A. […] The autoradiogram was exposed for 1 hour. Data represent one of three experiments.
COS-7 cells expressing Flag-tagged KSR were stimulated with 10 nM TNFα for the times indicated and lysed with NP-40 buffer as in FIG. 2A. […] The autoradiogram was exposed for 1 hour. Data represent one of three similar experiments.
Immunoprecipitated KSR was incubated with reaction buffer A containing 0.5 mM ATP and a protein kinase inhibitor cocktail [20 μM PKC inhibitor peptide (UBI), 2 μM protein kinase A inhibitor peptide (UBI) and 20 μM R24571 (Sigma)] for 30 min at 22° C.

Molecule | activation of CAP kinase [1] | activity of immunoprecipitated KSR to phosphorylate and activate Raf-1 [2]
CCCCCCCCCCCCCC(=O)O[C@@H]1[C@@H](C)[C@@]2(O)[C@@H](C=C(CO)C[C@]3(O)C(=O)C(C)=C[C@@H]23)[C@@H]2C(C)(C)[C@]12OC(C)=O [TPA, 12-0-tetradecanoylphorbol-13-acetate] | did not activate CAP kinase | –
TNF-α | – | stimulated dramatically
